Data set [1] deals with T1, human metastin receptor hOT7T175 (Homo sapiens, UniProt Q969F8, L364H).
T1 construct: encoding the entire length of human metastin receptor hOT7T175; expressed in transfected cells; host or cells: CHO/dhFr- cells (ATCC #CRL-9096) stably transfected with pAKKO-hOT7T175; clone h175-16 was used as whole cells for FLIPR
Kind of data set: binding inhibiting activity: 125I-metastin (40-54) binding to cell membrane fraction of h175 KB34 cells. Particulars: room temperature 60 minutes, read-out: binding inhibiting activity, represented by the IC50 value. The procedure, abridged:
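The assay buffer (pH 7.4 Tris with magnesium acetate, EGTA and a protease-inhibitor cocktail) was used either plain or supplemented with 1 mg/ml BSA. The radioligand was 125I-labelled human metastin (40-54). The receptor source was a 250-fold diluted membrane fraction of the stable CHO/dhfr− line h175 KB34.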

pIC50: −log10 of the molar value. A value given as a limit tells only on which side of the number the result lay.

T1 sequence (Q969F8 whole entry L364H): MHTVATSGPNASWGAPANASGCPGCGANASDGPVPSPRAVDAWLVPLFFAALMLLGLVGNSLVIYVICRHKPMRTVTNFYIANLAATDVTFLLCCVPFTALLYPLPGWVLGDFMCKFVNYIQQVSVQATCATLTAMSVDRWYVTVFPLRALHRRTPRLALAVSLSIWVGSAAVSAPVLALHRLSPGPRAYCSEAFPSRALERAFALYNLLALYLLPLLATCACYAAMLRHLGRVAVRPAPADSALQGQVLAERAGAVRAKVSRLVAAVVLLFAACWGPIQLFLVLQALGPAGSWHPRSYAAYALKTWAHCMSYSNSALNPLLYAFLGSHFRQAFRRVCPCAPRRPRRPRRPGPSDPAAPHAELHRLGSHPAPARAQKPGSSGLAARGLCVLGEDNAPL

As a reminder, the melting point is the temperature, or range, at which the solid turns liquid. Broadly, the pIC50 is −log10 of the IC50, conventionally taken in molar units. The compound `Cl.N#Cc1c(-c2cccc(C(=O)N[C@H]3CCCC[C@H]3N)c2)cc(-c2ccc(F)cc2O)nc1NC(=O)c1ccco1` (racemic) [Example 280, N-{4-[3-({[(1SR,2RS)-2-aminocyclohexyl]amino}carbonyl)phenyl]-3-cyano-6-(4-fluoro-2-hydroxyphenyl)pyridin-2-yl}-2-furamide hydrochloride] showed a melting point of 250 to 252 °C. In data set [1], the pIC50 is not below 5.00.

Turning to `CC(C)NC(C)CC(=O)Nc1cccc(-c2cc(-c3ccc(F)cc3O)nc(NC(=O)c3ccco3)c2C#N)c1.Cl` (stereo not drawn) [Example 321, N-[3-cyano-6-(4-fluoro-2-hydroxyphenyl)-4-(3-{[3-(isopropylamino)butanoyl]amino}phenyl)pyridin-2-yl]-2-furamide hydrochloride], the melting point fell in the range of 197 to 199 °C. In data set [1], the pIC50 is not below 5.00.

As to `CCNC(CC)CC(=O)Nc1cccc(-c2cc(-c3ccc(F)cc3O)nc(NC(=O)c3ccco3)c2C#N)c1.Cl` (stereo not drawn) [Example 308, N-[3-cyano-4-(3-{[3-(ethylamino)pentanoyl]amino}phenyl)-6-(4-fluoro-2-hydroxyphenyl)pyridin-2-yl]-2-furamide hydrochloride], the melting point is 233 to 238 °C. The pIC50 in data set [1] was not below 5.00.

`Cl.N#Cc1c(-c2cccc(NC(=O)C3CCNC3)c2)cc(-c2ccc(Cl)cc2O)nc1NC(=O)c1ccco1` (stereo not drawn) [Example 241, N-{3-[6-(4-chloro-2-hydroxyphenyl)-3-cyano-2-(2-furoylamino)pyridin-4-yl]phenyl}pyrrolidine-3-carboxamide hydrochloride] registered a melting point of 226 to 235 °C. Also, the pIC50 in data set [1] is not below 5.00.

Compound `Cl.N#Cc1c(-c2cccc(C(=O)N[C@@H]3CCCC[C@H]3N)c2)cc(-c2ccc(F)cc2O)nc1NC(=O)c1ccco1` (racemic) [Example 289, N-{4-[3-({[(1SR,2SR)-2-aminocyclohexyl]amino}carbonyl)phenyl]-3-cyano-6-(4-fluoro-2-hydroxyphenyl)pyridin-2-yl}-2-furamide hydrochloride] came in with a melting point of 285 to 288 °C. In addition, the pIC50 in data set [1] is not below 5.00.

`Cl.N#Cc1c(-c2cccc(NC(=O)CCN)c2)cc(-c2ccc(C(F)(F)F)cc2O)nc1NC(=O)c1cccs1` [Example 64, N-{4-[3-(β-alanylamino)phenyl]-3-cyano-6-[2-hydroxy-4-(trifluoromethyl)phenyl]pyridin-2-yl}thiophene-2-carboxamide hydrochloride] registered a melting point of 209 to 216 °C. Besides, the pIC50 in data set [1] was not below 5.00.

In the case of `Cl.N#Cc1c(-c2cccc(CNC(=O)CN)c2)cc(-c2ccccc2O)nc1NC(=O)c1cccs1` [Example 43, N-[3-cyano-4-{3-[(glycylamino)methyl]phenyl}-6-(2-hydroxyphenyl)pyridin-2-yl]thiophene-2-carboxamide hydrochloride], the melting point fell in the range of 181 to 186 °C. The pIC50 in data set [1] was not below 5.00.

The compound `CCN(CC)C(C)CC(=O)Nc1cccc(-c2cc(-c3ccc(F)cc3O)nc(NC(=O)c3ccco3)c2C#N)c1.Cl` (stereo not drawn) [Example 339, N-[3-cyano-4-(3-{[3-(diethylamino)butanoyl]amino}phenyl)-6-(4-fluoro-2-hydroxyphenyl)pyridin-2-yl]-2-furamide hydrochloride] returned a melting point of 193 to 195 °C. For the same compound, in data set [1], the pIC50 was not below 5.00.

In the case of `COc1ccc(C(=O)Nc2nc(-c3ccc(Cl)cc3O)cc(-c3cccc(NC(=O)CCN)c3)c2C#N)cc1.Cl` [Example 252, N-[4-[3-(β-alanylamino)phenyl]-6-(4-chloro-2-hydroxyphenyl)-3-cyanopyridin-2-yl]-4-methoxybenzamide hydrochloride], the melting point lay in the range of 193 to 197 °C. For the same compound, the pIC50 in data set [1] was not below 5.00.

For `CCN(CC)CC(=O)Nc1cccc(-c2cc(-c3ccc(F)cc3O)nc(NC(=O)c3ccco3)c2C#N)c1.Cl` [Example 315, N-[3-cyano-4-{3-[(N,N-diethylglycyl)amino]phenyl}-6-(4-fluoro-2-hydroxyphenyl)pyridin-2-yl]-2-furamide hydrochloride], the melting point fell in the range of 262 to 263 °C. The pIC50 in data set [1] is not below 5.00.

`Cl.N#Cc1c(-c2cccc(NC(=O)C(N)c3ccccc3)c2)cc(-c2ccc(F)cc2O)nc1NC(=O)c1ccco1` (stereo not drawn) [Example 258, N-[4-(3-{[amino(phenyl)acetyl]amino}phenyl)-3-cyano-6-(4-fluoro-2-hydroxyphenyl)pyridin-2-yl]-2-furamide hydrochloride] showed a melting point of 224 to 225 °C. Further, the pIC50 in data set [1] was not below 5.00.

Regarding `Cl.N#Cc1c(-c2cccc(NC(=O)CCCn3ccnc3)c2)cc(-c2ccc(Cl)cc2O)nc1NC(=O)c1ccco1` [Example 242, N-[6-(4-chloro-2-hydroxyphenyl)-3-cyano-4-(3-{[4-(1H-imidazole-1-yl)butanoyl]amino}phenyl)pyridin-2-yl]-2-furamide hydrochloride], the melting point was 166 to 170 °C. In addition, in data set [1], the pIC50 is not below 5.00.

`Cl.N#Cc1c(-c2cccc(NC(=O)CN3CCCC3)c2)cc(-c2ccc(F)cc2O)nc1NC(=O)c1ccco1` [Example 259, N-(3-cyano-6-(4-fluoro-2-hydroxyphenyl)-4-{3-[(pyrrolidin-1-ylacetyl)amino]phenyl}pyridin-2-yl)-2-furamide hydrochloride] gave a melting point of 203 to 205 °C. Also, the pIC50 in data set [1] is not below 5.00.

Regarding `CCN1CCCCC1CC(=O)Nc1cccc(-c2cc(-c3ccc(F)cc3O)nc(NC(=O)c3ccco3)c2C#N)c1.Cl` (stereo not drawn) [Example 322, N-[3-cyano-4-(3-{[(1-ethylpiperidin-2-yl)acetyl]amino}phenyl)-6-(4-fluoro-2-hydroxyphenyl)pyridin-2-yl]-2-furamide hydrochloride], the melting point was in the range of 201 to 203 °C. Moreover, in data set [1], the pIC50 is not below 5.00.

As to `Cc1ccc(-c2cc(-c3cccc(NC(=O)CCN)c3)c(C#N)c(NC(=O)c3cccs3)n2)c(O)c1.Cl` [Example 57, N-{4-[3-(β-alanylamino)phenyl]-3-cyano-6-(2-hydroxy-4-methylphenyl)pyridin-2-yl}thiophene-2-carboxamide hydrochloride], the melting point was in the range of 204 to 210 °C. Moreover, the pIC50 in data set [1] was not below 5.00.

Consider `COc1c(C(=O)NCCN)cccc1-c1cc(-c2ccccc2O)nc(NC(=O)c2ccco2)c1C#N.Cl` [Example 273, N-[4-(3-{[(2-aminoethyl)amino]carbonyl}-2-methoxyphenyl)-3-cyano-6-(2-hydroxyphenyl)pyridin-2-yl]-2-furamide hydrochloride], for which the melting point fell in the range of 182 to 188 °C. In data set [1], the pIC50 was not below 5.00.

In turn, `Cl.N#Cc1c(-c2ccc(F)c(C(=O)NCCN)c2)cc(-c2ccc(F)cc2O)nc1NC(=O)c1ccco1` [Example 281, N-[4-(3-{[(2-aminoethyl)amino]carbonyl}-4-fluorophenyl)-3-cyano-6-(4-fluoro-2-hydroxyphenyl)pyridin-2-yl]-2-furamide hydrochloride] displayed a melting point of 255 to 264 °C. In data set [1], the pIC50 was not below 5.00.

Turning to `CC(C)(CN)CNC(=O)c1cccc(-c2cc(-c3ccc(Cl)cc3O)nc(NC(=O)c3ccco3)c2C#N)c1.Cl` [Example 85, N-[4-(3-{[(3-amino-2,2-dimethylpropyl)amino]carbonyl}phenyl)-6-(4-chloro-2-hydroxyphenyl)-3-cyanopyridin-2-yl]-2-furamide hydrochloride], the melting point was in the range of 241 to 244 °C. The pIC50 in data set [1] is not below 5.00.

As for `Cl.N#Cc1c(-c2cccc(NC(=O)[C@H]3CCCN3)c2)cc(-c2ccc(Cl)cc2O)nc1NC(=O)c1ccno1` [Example 295, N-(3-{6-(4-chloro-2-hydroxyphenyl)-3-cyano-2-[(isoxazol-5-ylcarbonyl)amino]pyridin-4-yl}phenyl)-D-prolinamide hydrochloride], the melting point is ≥ 250 °C (dec.). For the same compound, the pIC50 in data set [1] was not below 5.00.

In turn, `C[C@H](N)CC(=O)Nc1cccc(-c2cc(-c3ccc(Cl)cc3O)nc(NC(=O)c3nccs3)c2C#N)c1.Cl` [Example 269, N-[4-(3-{[(3S)-3-aminobutanoyl]amino}phenyl)-6-(4-chloro-2-hydroxyphenyl)-3-cyanopyridin-2-yl]-1,3-thiazole-2-carboxamide hydrochloride] had a melting point of 218 to 221 °C. Moreover, the pIC50 in data set [1] was not below 5.00.

On to `Cl.N#Cc1c(-c2cccc(NC(=O)[C@H]3CCC[C@H]3N)c2)cc(-c2ccc(F)cc2O)nc1NC(=O)c1ccco1` (racemic) [Example 278, N-{4-[3-({[(1SR,2RS)-2-aminocyclopentyl]carbonyl}amino)phenyl]-3-cyano-6-(4-fluoro-2-hydroxyphenyl)pyridin-2-yl}-2-furamide hydrochloride], for which the melting point lay in the range of 224 to 226 °C. Further, the pIC50 in data set [1] is not below 5.00.

Consider `Cl.N#Cc1c(-c2cccc(NC(=O)CCN)c2)cc(-c2ccc(F)cc2O)nc1NC(=O)c1ccco1` [Example 68, N-{4-[3-(β-alanylamino)phenyl]-3-cyano-6-(4-fluoro-2-hydroxyphenyl)pyridin-2-yl}-2-furamide hydrochloride], for which the melting point lay within 269 to 270 °C. In data set [1], the pIC50 was not below 5.00.

`Cl.N#Cc1c(-c2cccc(NC(=O)[C@H]3CCCN3)c2)cc(-c2ccc(F)cc2O)nc1NC(=O)c1ccco1` [Example 291, N-{3-[3-cyano-6-(4-fluoro-2-hydroxyphenyl)-2-(2-furoylamino)pyridin-4-yl]phenyl}-D-prolinamide hydrochloride] displayed a melting point of 216 to 220 °C. In addition, the pIC50 in data set [1] is not below 5.00.

For `N#Cc1c(-c2cccc(CN)c2)cc(-c2ccccc2O)nc1NC(=O)c1cccs1` [Example 1, N-[4-[3-(aminomethyl)phenyl]-3-cyano-6-(2-hydroxyphenyl)pyridin-2-yl]thiophene-2-carboxamide], the melting point lay in the range of 203 to 205 °C. The pIC50 in data set [1] was not below 5.00.

The values are drawn from patent US20090156646A1, “PYRIDYLPHENOL COMPOUND AND USE THEREOF” (TAKEDA PHARMACEUTICAL COMPANY LIMITED, priority 2005, published 2009).
